We go through 1 compound from PMC8634879, “Design, Synthesis, and Biological Evaluation of Pyrano[2,3-c]-pyrazole–Based RalA Inhibitors Against Hepatocellular Carcinoma” (Frontiers in Chemistry, 2021).

For one assay, the target named is T1, RalA (Homo sapiens, UniProt P11233).
T1 construct: expressed in transfected cells; host or cells: HepG2 (from b6; the methods paragraph names no cell line)
T1 sequence (P11233 1-203 limits assumed): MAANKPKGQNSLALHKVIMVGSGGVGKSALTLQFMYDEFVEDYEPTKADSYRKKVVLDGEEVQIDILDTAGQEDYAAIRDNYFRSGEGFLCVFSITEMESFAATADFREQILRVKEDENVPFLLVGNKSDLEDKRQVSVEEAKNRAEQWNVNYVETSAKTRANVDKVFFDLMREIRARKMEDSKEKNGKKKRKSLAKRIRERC
Description: ELISA-based RalA activity assay (RalBP1-coated plates, lysates of compound-treated cells). Format: biochemical. In short, it runs like this: (§1)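 Lysates of compound- or vehicle-treated cells, cleared by cold centrifugation, incubated overnight at 4°C on RalBP1-coated plates. Bound Ral detected with mouse anti-FLAG then HRP anti-mouse antibody; reaction stopped with 2 mol/L sulfuric acid and read at OD450.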
Background: ELISA stands for enzyme-linked immunosorbent assay.

The target in the next assay is T2, RalB (Homo sapiens, UniProt P11234).
T2 construct: expressed in transfected cells; host or cells: HepG2 (from b6; the methods paragraph names no cell line)
T2 sequence (P11234 1-203 limits assumed): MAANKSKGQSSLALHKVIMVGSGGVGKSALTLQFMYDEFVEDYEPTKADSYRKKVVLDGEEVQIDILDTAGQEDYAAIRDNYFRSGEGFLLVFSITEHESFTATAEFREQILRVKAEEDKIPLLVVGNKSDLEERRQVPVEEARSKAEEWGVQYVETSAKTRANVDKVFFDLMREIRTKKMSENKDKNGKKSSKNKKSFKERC
Put plainly: ELISA-based RalB activity assay (RalBP1-coated plates, lysates of compound-treated cells). It counts as biochemical. In short, it runs like this: as §1

In assay [1] the test system is HepG2 cells. Put plainly: Cell proliferation assay (MTT), HepG2. It counts as cell-based. As to conditions: Homo sapiens. In short, it runs like this:
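HCC lines cultured in DMEM with 10% FBS and streptomycin; cytotoxicity measured by MTT method as previously described.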

The test system of assay [2] is HepG2 cells. Description: Autophagy assays in HepG2 cells (TEM, Western blotting, GFP-LC3 puncta). It counts as cell-based. On the procedure:
Several reports have characterized RalA/B potential regulatory roles in autophagy ([Zhang et al., 2019]; [Pang et al., 2020]; [Zhang et al., 2020]). Considering the dual effect of HCC autophagy, we assessed changes in HepG2 cell autophagy levels after the addition of 0.5 or 2.0 μM of 4p, before incubation. Based on HepG2 cells’ TEM images with or without 4p (Figure 5B), autophagy vacuoles per cell decreased in the 4p-treated group (p < 0.01). After 4p treatments, LC3-II and ATG5 protein levels declined and SQSTM1 increased. […] In GFP-LC3–transfected HepG2 cells, cytoplasm LC3 fluorescent puncta numbers also declined after 4p treatments. […] The in vivo antitumor capacities of 4p were determined on a HepG2 subcutaneous xenograft model. The 4p intraperitoneal injections were set to 15 mg/kg and 60 mg/kg, according to in vitro results. […] The potential 4p molecular mechanisms were further validated using immunofluorescence and IHC analyses of tissue sections stained by antibodies against TUNEL, Ki-67, RalA, LC3-II, and SQSTM1. […] Therefore, the in vivo results were consistent with in vitro experiments. […]
The autophagy assay is relied on HepG2 cells transfected by GFP-LC3. In brief, the HepG2 cells after transfecting are processed by saline or compound 4p for 6 h, after that the cells are going to fix by paraformaldehyde and the phenomenon of autophagosome punctures can be observed through the accumulated of GFP-LC3 under laser confocal microscopy.
2. Western blotting analysis
For western blotting, the extracts of total protein from each sample were treated in accordance with the method we described previously. In short, the total proteins were loaded into the SDS-PAGE gel and separated through the different of their molecular weight in electrophoresis, after that the separated proteins were shifted into a PVDF membrane (Millipore, Burlington, MA, USA) and incubated through corresponding membrane react pathways. The resulted membranes reacted with major antibodies and HRP (horseradish peroxidase)-conjugated secondary antibodies. The expression profiles of target proteins can be identified through an enhanced chemiluminescence (ECL) substrate. […]
A general note: In western blotting, separated proteins are transferred to a membrane and probed.

Structures are written as SMILES. Read-outs that look alike come from different tables or passages of the source.

For `COc1ccc(S(=O)(=O)NC2=C(C#N)C(c3ccc(C(F)(F)F)cc3)c3c(C)nn(-c4ccccc4)c3O2)cc1` (stereo not shown) [4p, N-(5-cyano-3-methyl-1-phenyl-4-(4-(trifluoromethyl)phenyl)-1,4-dihydropyrano[2,3-c]-pyrazol-6-yl)-4-methoxybenzenesulfonamide], the remaining activity (in general, the signal under treatment as a percentage of the control signal) at 1 µM was determined as 13% on RalA (1 μM compound, % control = activity remained) and 22% on RalB (1 μM compound, % control = active (RalBP1-bound) RalB remaining). The IC50 – broadly, the concentration that gives 50% inhibition – at RalA (enzymatic inhibition, average of at least three independent replicates ± SD, read-out: Kinase activities (IC50, μM) RalA) was found to be 0.22 ± 0.04 µM; at RalB (enzymatic inhibition, average of at least three independent replicates ± SD, read-out: Kinase activities (IC50, μM) RalB) it was 0.41 ± 0.07 µM; in the assay on HepG2 cells [1] (HepG2, Table 1, cell proliferation inhibition, read-out: IC50 (μM) HepG2), 2.28 ± 0.23 µM; in the assay on HepG2 cells [1] (HepG2, Table 2, average of at least three independent replicates ± SD, read-out: Anti-proliferative activities (IC50, μM) HepG2), 2.28 ± 0.23 µM. Also, the “cytoplasm LC3 fluorescent puncta numbers” value in the assay on HepG2 cells [2] (GFP-LC3–transfected HepG2 cells, 2.0 μM) is “declined”. Also, the “LC3-II and ATG5 protein levels (Western blotting)” value in the assay with HepG2 cells [2] (HepG2, 0.5 or 2.0 μM) is “declined”. The “SQSTM1 protein level (Western blotting)” value with HepG2 cells [2] (HepG2, 0.5 or 2.0 μM) is recorded as “increased”. Besides, in the assay on HepG2 cells [2] (HepG2, 4p-treated group, p < 0.01), the “autophagy vacuoles per cell (TEM)” value is on record as “decreased”.
